Results on seven compounds are retold here after ChEMBL document CHEMBL2034917, “Multifunctional mercapto-tacrine derivatives for treatment of age-related neurodegenerative diseases” (J Med Chem, 2012).

In one series the target is Cholinesterase (Equus caballus, UniProt P81908).
Series [1] concerns SH-SY5Y. Nature of the series: Neuroprotective activity in human SH-SY5Y cells assessed as protection against H2O2-induced oxidative stress at 1 uM incubated for 1 hr prior to H2O2-challenge measured after 12 hrs by MTT assay. The series is classed as functional.
Series [2] concerns SH-SY5Y. Nature of the series: Neuroprotective activity in human SH-SY5Y cells assessed as protection against H2O2-induced oxidative stress at 10 uM incubated for 1 hr prior to H2O2-challenge measured after 12 hrs by MTT assay. Format: functional. For orientation: Formazan colour is commonly taken as a measure of viable cells.
Series [3] concerns SH-SY5Y. Nature of the series: Neuroprotective activity in human SH-SY5Y cells assessed as protection against H2O2-induced oxidative stress at 3 uM incubated for 1 hr prior to H2O2-challenge measured after 12 hrs by MTT assay. The series is classed as functional.
Series [4] has as its system SH-SY5Y. Nature of the series: Neuroprotective activity in human SH-SY5Y cells assessed as protection against H2O2-induced oxidative stress at 30 uM incubated for 1 hr prior to H2O2-challenge measured after 12 hrs by MTT assay. Format: functional.
For the next series, the target named is Acetylcholinesterase (Electrophorus electricus, UniProt O42275). Nature of the series: Inhibition of electric eel acetylcholine esterase using […] as substrate incubated for 5 mins prior to substrate addition measured every 3 mins by Ellman's assay.
Sequence of Acetylcholinesterase (O42275 whole entry): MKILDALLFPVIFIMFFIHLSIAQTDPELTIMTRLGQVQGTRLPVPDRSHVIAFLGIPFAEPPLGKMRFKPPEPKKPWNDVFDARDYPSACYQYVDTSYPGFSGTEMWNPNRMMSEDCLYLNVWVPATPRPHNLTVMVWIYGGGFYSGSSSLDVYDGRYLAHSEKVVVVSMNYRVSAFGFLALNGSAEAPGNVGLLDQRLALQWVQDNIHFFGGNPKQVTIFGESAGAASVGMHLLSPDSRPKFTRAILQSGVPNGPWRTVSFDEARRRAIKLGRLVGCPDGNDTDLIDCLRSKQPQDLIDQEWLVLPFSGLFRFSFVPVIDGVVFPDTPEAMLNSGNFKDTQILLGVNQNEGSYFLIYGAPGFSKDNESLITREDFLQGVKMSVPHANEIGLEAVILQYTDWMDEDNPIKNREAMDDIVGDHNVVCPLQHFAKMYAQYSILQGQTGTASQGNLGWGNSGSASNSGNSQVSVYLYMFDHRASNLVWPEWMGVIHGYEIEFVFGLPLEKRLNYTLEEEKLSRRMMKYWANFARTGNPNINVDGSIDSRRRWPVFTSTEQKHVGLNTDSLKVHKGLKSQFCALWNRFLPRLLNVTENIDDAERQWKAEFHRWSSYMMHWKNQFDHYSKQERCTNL
Series [5] has as its system Hippocampus. In words: Neuroprotective activity in Sprague-Dawley rat hippocampal CA1 region assessed as enhancement of high frequency stimulation-induced long-term potentiation by measuring field excitatory postsynaptic potentials at 50 uM incubated for 5 mins prior to HFS-induction measured after 10 mins by electrophysiology assay (reference value: 134.3 +/- 3.9%). The series is classed as functional.

Series [6] has as its system Rattus norvegicus. In words: Neuroprotective activity in Sprague-Dawley rat assessed as enhancement of high frequency stimulation-induced long-term potentiation in hippocampus at 50 uM, icv after 3 hrs (reference value: 126 +/- 3.6%). Format: functional.
For series [7], the system named is Rattus norvegicus. In words: Hepatotoxicity in Sprague-Dawley rat assessed increase in alanine aminotransferase level in serum at 6 umol/100g of body weight, ip up to 120 hrs. The following applies: in vivo. The series is classed as toxicity, organism-based.
Series [8] has as its system Hippocampus. In words: Neuroprotective activity in Sprague-Dawley rat hippocampal CA1 region assessed as enhancement of high frequency stimulation-induced long-term potentiation by measuring field excitatory postsynaptic potentials at 50 uM incubated for 5 mins prior to HFS-induction measured after 10 mins by electrophysiology assay (reference value: 133.7 +/- 3.6%). Format: functional.

Series [9] deals with Rattus norvegicus. In words: Hepatotoxicity in Sprague-Dawley rat assessed increase in aminotransferase level in serum at 6 umol/100g of body weight, ip up to 120 hrs. The series is classed as toxicity, organism-based. The following applies: in vivo.
Series [10] deals with SH-SY5Y. In words: Neuroprotective activity in human SH-SY5Y cells assessed as protection against H2O2-induced oxidative stress incubated for 1 hr prior to H2O2-challenge measured after 12 hrs by MTT assay. The series is classed as functional, cell-based.
The target of series [11] is Acetylcholinesterase (Electrophorus electricus) (UniProt O42275). In words: Time dependent inhibition of electric eel acetylcholine esterase using […] as substrate incubated for 5 mins prior to substrate addition measured for 2 to 40 mins by Ellman's assay. Background: DTNB colorimetry detects thiols as they appear.
Sequence of Acetylcholinesterase (Electrophorus electricus) (O42275 24-633 limits assumed): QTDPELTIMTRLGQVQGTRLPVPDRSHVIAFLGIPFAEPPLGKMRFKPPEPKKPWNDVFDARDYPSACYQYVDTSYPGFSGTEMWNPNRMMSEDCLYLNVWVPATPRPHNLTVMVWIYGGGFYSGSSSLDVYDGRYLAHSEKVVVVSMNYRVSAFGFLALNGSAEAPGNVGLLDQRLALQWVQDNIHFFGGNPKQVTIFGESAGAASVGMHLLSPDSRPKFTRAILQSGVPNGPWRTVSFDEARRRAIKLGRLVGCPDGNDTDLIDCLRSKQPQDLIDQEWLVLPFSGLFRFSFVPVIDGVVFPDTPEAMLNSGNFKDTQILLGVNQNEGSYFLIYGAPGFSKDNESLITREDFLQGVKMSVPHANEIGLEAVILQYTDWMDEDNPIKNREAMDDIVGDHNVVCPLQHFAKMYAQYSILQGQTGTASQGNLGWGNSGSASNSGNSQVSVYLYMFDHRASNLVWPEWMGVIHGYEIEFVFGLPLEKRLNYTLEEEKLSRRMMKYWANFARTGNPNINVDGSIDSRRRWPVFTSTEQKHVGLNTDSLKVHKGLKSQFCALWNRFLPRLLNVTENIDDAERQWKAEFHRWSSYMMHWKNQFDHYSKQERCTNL
The target is the same in series [12]. In words: Mixed type inhibition of electric eel acetylcholine esterase using […] as substrate by Lineweaver-Burk reciprocal plot analysis.
The subject of series [13] is Hippocampus. Nature of the series: Neuroprotective activity in Sprague-Dawley rat hippocampal CA1 region assessed as enhancement of high frequency stimulation-induced long-term potentiation by measuring field excitatory postsynaptic potentials incubated for 5 mins prior to HFS-induction measured after 10 mins by electrophysiology assay (reference value: […] +/- 5.3%). The series is classed as functional.

Molecules are shown by their SMILES. Calls of active or inactive are those of the source. No cut-off for these calls is given here.

Sequence of Cholinesterase (P81908 whole entry): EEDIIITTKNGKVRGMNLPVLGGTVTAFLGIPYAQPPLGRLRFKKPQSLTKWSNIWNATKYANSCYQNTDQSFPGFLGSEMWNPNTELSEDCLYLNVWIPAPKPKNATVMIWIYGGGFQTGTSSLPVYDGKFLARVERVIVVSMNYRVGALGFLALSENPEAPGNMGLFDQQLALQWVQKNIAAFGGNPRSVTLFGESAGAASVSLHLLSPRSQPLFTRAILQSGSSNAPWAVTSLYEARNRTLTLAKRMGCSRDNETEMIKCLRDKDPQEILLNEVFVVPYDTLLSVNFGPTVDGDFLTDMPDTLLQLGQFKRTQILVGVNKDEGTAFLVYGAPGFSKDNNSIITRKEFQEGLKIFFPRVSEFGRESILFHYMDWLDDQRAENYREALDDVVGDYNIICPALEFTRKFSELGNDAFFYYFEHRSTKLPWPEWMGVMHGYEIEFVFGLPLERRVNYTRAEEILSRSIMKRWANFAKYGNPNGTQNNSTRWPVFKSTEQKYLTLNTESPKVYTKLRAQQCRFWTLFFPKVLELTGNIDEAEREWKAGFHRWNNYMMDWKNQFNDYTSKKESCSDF

The IC50 is the concentration at which inhibition is half-maximal. Low readings indicate higher potency, high ones lower potency. In the case of `O=C(CCS)NCCCCCCNc1c2c(nc3cc(Cl)ccc13)CCCC2`, the IC50 against Cholinesterase and against Acetylcholinesterase was 178 nM throughout. Moreover, the Activity in the series with SH-SY5Y [1] is reported as 52.3%; with SH-SY5Y [2], 24.5%; with SH-SY5Y [3], 27.2%; in the series with SH-SY5Y [4] it was 37.8%; in the series with Hippocampus [5] it was 157.1%; with Rattus norvegicus [6], 149%.
With `O=C(CCS)NCCCCNc1c2c(nc3ccccc13)CCCC2`, the IC50 at Cholinesterase is 129 nM; against Acetylcholinesterase, 8320 nM. For the same compound, the Activity in the series on SH-SY5Y [1] came to 23.8%; in the series with SH-SY5Y [2], 21.5%; in the series with SH-SY5Y [3], 5.8%; with SH-SY5Y [4] it was 38.2%.
Regarding `O=C(CCS)NCCCNc1c2c(nc3ccccc13)CCCC2`, the IC50 was 182 nM on Cholinesterase and 6030 nM at Acetylcholinesterase. Besides, the Activity is 45.9% with SH-SY5Y [1]; 16.7% in the series on SH-SY5Y [2]; 22% in the series on SH-SY5Y [3]; 34% with SH-SY5Y [4]; “Non-toxic” in the series on Rattus norvegicus [7]; 160.8% with Hippocampus [8]. The Activity entry in the series with Rattus norvegicus [9] is reported as “Non-toxic”.
In the case of `CC(=O)SCCC(=O)NCCCCNc1c2c(nc3ccccc13)CCCC2`, the IC50 against Cholinesterase was 155 nM; on Acetylcholinesterase it was 7240 nM. Moreover, the Activity was 21.7% in the series with SH-SY5Y [1]; 43.6% with SH-SY5Y [2]; 30.1% in the series with SH-SY5Y [3]; 56.5% in the series on SH-SY5Y [4]; “Dose-dependent effect” with SH-SY5Y [10].
Regarding `CC(=O)SCCC(=O)NCCCCCCNc1c2c(nc3cc(Cl)ccc13)CCCC2`, the IC50 on Cholinesterase was 91.2 nM; on Acetylcholinesterase it was 42.7 nM. Further, the Activity with SH-SY5Y [1] is 8.1%; in the series with SH-SY5Y [2], 28.5%; in the series with SH-SY5Y [3], 17.1%; in the series with SH-SY5Y [4], 34%; with SH-SY5Y [10] it was “Dose-dependent effect”. The inhibition entry in series [11] was “inactive”. Also, the inhibition result in [12] was “Active”.
As for `Cc1c(C)c2c(c(C)c1O)CCC(C)(C(=O)O)O2` (stereo unspecified) [TROLOX], the Activity with SH-SY5Y [2] was determined as 44.2%; in the series on SH-SY5Y [4] it was 59.1%.
For the compound `CC(=O)SCCC(=O)NCCCNc1c2c(nc3ccccc13)CCCC2`, the IC50 at Cholinesterase was 229 nM; at Acetylcholinesterase, 1740 nM. Further, the Activity with SH-SY5Y [1] is 32.4%; in the series on SH-SY5Y [2], 38.2%; in the series with SH-SY5Y [3] it was 35.9%; in the series on SH-SY5Y [4], 50.6%; in the series with Rattus norvegicus [7], “Non-toxic”; in the series on Rattus norvegicus [9], “Non-toxic”. Besides, the Activity entry in the series with SH-SY5Y [10] is “Dose-dependent effect”; with Hippocampus [13], 136.2%.
